Measurements reported in patent US10150757B2, “Quinazolinone derivatives as PARP inhibitors” (Janssen Pharmaceutica NV, priority 2004, dated 2018).

target: PARP-1 enzyme (Homo sapiens, UniProt P09874); test: In vitro filtration assay for PARP-1 inhibitory activity; format: biochemical; conditions: [32P]-NAD, histones, nicked DNA; read-out: in vitro filter assay PARP-1 pIC50 (converted)
Description: In Vitro Filtration Assay for PARP-1 Inhibitory Activity
Compounds of the present invention were tested in an in vitro filtration assay assessing PARP-1 activity (triggered in the presence of nicked DNA) by means of its histone poly (ADP-ribosyl)ation activity using [^32P]-NAD as ADP-ribosyl donor. The radioactive ribosylated histones were precipitated by trichloroacetic acid (TCA) in 96-well filterplates and the incorporated [^32P] measured using a scintillation counter
A mixture of histones (stock solution: 5 mg/ml in H2O), NAD^+ (stock solution: 100 mM in H2O), and [^32P]-NAD^+ in incubation buffer (50 mM Tris/HCl, pH 8; 0.2 mM DTT; 4 mM MgCl2) was made. A mixture of the PARP-1 enzyme (5-10 μg/ml) and nicked DNA was also made. The nicked DNA was prepared as described in the in vitro SPA for PARP-1 inhibitory activity. Seventy-five μl of the PARP-1 enzyme/DNA mixture together with 1 μl of compound in DMSO and 25 μl of histones-NAD^+/[^32P]-NAD^+ mixture was added per well of a 96-well filterplate (0.45 μm, supplier Millipore). The final concentrations in the incubation mixture were 2 μg/ml for the histones, 0.1 mM for the NAD^+, […] (0.5 μC) for the [^32P]-NAD^+ and 2 μg/ml for the nicked DNA. Plates were incubated for 15 min. at room temperature and the reaction was terminated by the addition of 10 μl ice cold 100% TCA followed by the addition of 10 μl ice-cold BSA solution (1% in H2O). The protein fraction was allowed to precipitate for 10 min. at 4° C. and plates were vacuum filtered. The plates were subsequently washed with, for each well, 1 ml of 10% ice cold TCA, 1 ml of 5% ice cold TCA and 1 ml of 5% TCA at room temperature. Finally 100 μl of scintillation solution (Microscint 40, Packard) was added to each well and the plates were transferred to a TopCountNXT™ (supplier: Packard) for scintillation counting and values were expressed as counts per minute (cpm). For each experiment, controls (containing PARP-1 enzyme and DMSO without compound), a blank incubation (containing DMSO but no PARP-1 enzyme or compound) and samples (containing PARP-1 enzyme and compound dissolved in DMSO) were run in parallel. All compounds tested were dissolved and eventually further diluted in DMSO. In first instance, compounds were tested at a concentration of 10^−5M. […] In each test, the blank value was subtracted from both the control and the sample values. The control sample represented maximal PARP-1 enzyme activity. For each sample, the amount of cpm was expressed as a percentage of the mean cpm value of the controls. […] Herein the effects of test compounds are expressed as pIC50 (the negative log value of the IC50-value).

Chain of PARP-1 enzyme (P09874 whole entry): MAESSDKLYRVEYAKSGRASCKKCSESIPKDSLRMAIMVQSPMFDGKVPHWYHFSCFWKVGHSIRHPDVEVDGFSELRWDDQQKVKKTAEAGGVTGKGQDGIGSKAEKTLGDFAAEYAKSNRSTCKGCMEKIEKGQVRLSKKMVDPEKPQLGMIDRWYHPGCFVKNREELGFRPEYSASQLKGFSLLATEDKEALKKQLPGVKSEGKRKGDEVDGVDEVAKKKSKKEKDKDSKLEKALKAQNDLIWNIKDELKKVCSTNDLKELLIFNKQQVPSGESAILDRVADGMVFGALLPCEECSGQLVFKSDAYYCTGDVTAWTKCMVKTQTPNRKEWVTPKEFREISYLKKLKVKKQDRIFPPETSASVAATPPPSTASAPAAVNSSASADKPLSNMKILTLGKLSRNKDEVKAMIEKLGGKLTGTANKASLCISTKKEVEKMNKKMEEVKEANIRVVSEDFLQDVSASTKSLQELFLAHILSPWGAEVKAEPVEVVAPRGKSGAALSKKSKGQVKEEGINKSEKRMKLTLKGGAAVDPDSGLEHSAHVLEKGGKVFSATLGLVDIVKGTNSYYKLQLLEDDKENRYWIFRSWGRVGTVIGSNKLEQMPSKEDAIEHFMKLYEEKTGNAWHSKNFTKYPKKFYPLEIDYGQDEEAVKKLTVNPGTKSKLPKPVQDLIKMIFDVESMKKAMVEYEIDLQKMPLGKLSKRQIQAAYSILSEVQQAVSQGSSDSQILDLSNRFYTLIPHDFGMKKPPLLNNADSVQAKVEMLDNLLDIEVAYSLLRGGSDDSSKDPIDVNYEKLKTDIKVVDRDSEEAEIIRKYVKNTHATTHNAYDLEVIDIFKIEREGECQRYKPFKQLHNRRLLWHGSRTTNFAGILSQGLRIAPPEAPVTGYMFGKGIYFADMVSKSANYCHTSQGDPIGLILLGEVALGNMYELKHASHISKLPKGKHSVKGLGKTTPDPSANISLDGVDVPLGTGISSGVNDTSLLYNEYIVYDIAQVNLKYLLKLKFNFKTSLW

| Compound | IC50 |
| --- | --- |
| CCCCn1cc(C2CCN(CCCNc3nc4ccccc4c(=O)[nH]3)CC2)c2ccccc21 [Compound 28] | 2.82 µM |
| O=c1[nH]c(NCCCN2CCC(Nc3cccc4ccccc34)CC2)nc2ccccc12 [Compound 42] | 8.95 µM |
| O=c1[nH]c(NCCCN2CCC(O)(c3ccc(Cl)cc3)CC2)nc2ccccc12 [Compound 2] | 0.973 µM |
| O=c1[nH]c(NCCCN2CCC(c3noc4cc(F)ccc34)CC2)nc2ccccc12 [Compound 26] | 1.63 µM |
| O=c1[nH]c(NCCCN2CCC(c3c[nH]c4ccccc34)CC2)nc2ccccc12 [Compound 20] | 5.3 µM |
| O=c1[nH]c(NCCN2CCC(c3n[nH]c4cc(F)ccc34)CC2)nc2ccccc12 [Compound 21] | 0.52 µM |
| O=c1[nH]c(NCCCN2CCC(c3n[nH]c4cc(F)ccc34)CC2)nc2ccccc12 [Compound 25] | 2.32 µM |
| O=c1[nH]c(NCCCN2CCN(c3n[nH]c4cc(F)ccc34)CC2)nc2ccccc12 [Compound 27] | 0.424 µM |
| CC1(C)Cc2c(N)c(Cl)cc(C(=O)NC3CCN(CCCCNc4nc(O)c5ccccc5n4)CC3)c2O1 [Compound 5] | 2.64 µM |
| O=C(c1ccc(F)cc1)C1CCN(CCNc2nc3ccccc3c(=O)[nH]2)CC1 [Compound 46] | 1.87 µM |
| CO[C@@H]1CN(CCCNc2nc(O)c3ccccc3n2)CCN1NC(=O)c1cc(Cl)c(N)c2c1OC(C)(C)C2 [Compound 8] | 2.11 µM |
| CC1(C)Cc2c(N)c(Cl)cc(C(=O)NC3CCN(CCCNc4nc(O)c5ccccc5n4)CC3)c2O1 [Compound 4] | 3.65 µM |

Continued, values first:

| IC50 | Compound |
| --- | --- |
| 0.546 µM | O=c1[nH]c(NCCN2CCN(c3n[nH]c4cc(F)ccc34)CC2)nc2ccccc12 [Compound 41] |
| 4.95 µM | O=c1[nH]c(NCCCN2CCN(c3nsc4ccccc34)CC2)nc2ccccc12 [Compound 24] |
| 3.44 µM | Nc1c(Cl)cc(C(=O)OCC2CCN(CCNc3nc4ccccc4c(=O)[nH]3)CC2)c2c1OCCO2 [Compound 7] |
| 4.65 µM | O=c1[nH]c(NCCCN2CCC(n3c(=O)[nH]c4ccccc43)CC2)nc2ccccc12 [Compound 29] |
| 4.52 µM | CO[C@H]1CN(CCCNc2nc3ccccc3c(=O)[nH]2)CC[C@H]1NC(=O)c1cc(Cl)cc2c1OC(C)(C)C2 [Compound 18] |
| 3.05 µM | Nc1c(Cl)cc(C(=O)NC2CCN(CCCNc3nc(O)c4ccccc4n3)CC2)c2c1CCO2 [Compound 45] |
| 2.24 µM | O=c1nc(NCCCN2CCC(Nc3nccc4ccccc34)CC2)[nH]c2ccccc12 [Compound 40] |
| 0.467 µM | O=c1[nH]c(NCCCN2CCN(c3n[nH]c4ccccc34)CC2)nc2ccccc12 [Compound 22] |
| 2.54 µM | O=C(NC1CCN(CCCNc2nc3ccccc3c(=O)[nH]2)CC1)c1ccccc1 [Compound 23] |
| 2.74 µM | CO[C@@H]1CN(CCCNc2nc(O)c3ccccc3n2)CC[C@@H]1NC(=O)c1cc(Cl)c(N)c2c1OCCC2 [Compound 6] |

test system: not given; test: not given; conditions: not given

| Compound | melting point |
| --- | --- |
| O=c1[nH]c(NCCCN2CCC(O)(c3ccc(Cl)cc3)CC2)nc2ccccc12 [Compound 2] | 178.4 °C |
| O=c1[nH]c(NCCN2CCN(c3n[nH]c4ccccc34)CC2)nc2ccc(Cl)cc12 [Compound 1] | 186 °C |
